The test deals with rBIIa/beta 1 sodium channels expressed in Xenopus oocytes (Rattus norvegicus, UniProt P04775). In words: Electrophysiological assay, two-electrode voltage clamp in oocytes, inactivated-state protocol. The format is cell-based. On the procedure: An electrophysiological assay was used to measure potencies of compounds of the present invention rBIIa/beta 1 sodium channels expressed in Xenopus oocytes.
Preparation of cRNA encoding cloned rat brain type IIa (rBIIa) and beta 1 (β1): cDNA clones encoding the rat brain beta 1 subunit are cloned in house using standard methods, and mRNA are prepared by standard methods. mRNA encoding rBIIa is provided by Dr. A. Golden (UC Irvine). The mRNAs are diluted and stored at −80° C. in 1 μL aliquots until injection.
Preparation of oocytes: Mature female Xenopus laevis are anaesthetized (20–40 min) using 0.15% 3-aminobenzoic acid ethyl ester (MS-222) following established procedures (Woodward, R. M., et al., Mol. Pharmacol. 41:89–103 (1992)).
Two to six ovarian lobes are surgically removed. Oocytes at developmental stages V–VI are dissected from the ovary, wherein the oocytes are still surrounded by enveloping ovarian tissues. Oocytes are defolliculated on the day of surgery by treatment with collagenase (0.5 mg/mL Sigma Type I, or Boehringer Mannheim Type A, for 0.5–1 hr). Treated oocytes are vortexed to dislodge epithelia, washed repeatedly and stored in Barth's medium containing 88 mM NaCl, 1 mM KCl, 0.41 mM CaCl2, 0.33 mM Ca(NO3)2, 0.82 mM MgSO4, 2.4 mM NaHCO3, 5 mM HEPES, pH 7.4 adjusted with 0.1 mg/mL gentamycin sulphate.
Micro-injection of oocytes: Defolliculated oocytes are micro-injected using a Nanoject injection system (Drummond Scientific Co., Broomall, Pa.). Injection pipettes are beveled to minimize clogging. Tip diameter of injection pipettes is 15–35 μm. Oocytes are microinjected with approximately 50 nL 1:10 ratio mixtures of cRNAs for rBIIa and beta 1 respectively.
Electrophysiology: Membrane current responses are recorded in frog Ringer solution containing 115 mM NaCl, 2 mM KCl, 1.8 mM CaCl2, 5 mM HEPES, pH 7.4. Electrical recordings are made using a conventional two-electrode voltage clamp (Dagan TEV-200) over periods ranging between 1–7 days following injection. The recording chamber is a simple gravity fed flow-through chamber (volume […] depending on adjustment of aspirator). Oocytes are placed in the recording chamber, impaled with electrodes and continuously perfused (5–15 mL min^−1) with frog Ringer's solution. The tested compounds are applied by bath perfusion.
Voltage protocols for evoking sodium channel currents: The standard holding potential for whole oocyte clamp is −120 mV. Standard current-voltage relationships are elicited by 40 ms depolarizing steps starting from −60 mV to +50 mV in 10 mV increments. Peak currents are measured as the maximum negative current after depolarizing voltage steps. The voltage from maximum current response is noted and used for the next voltage protocol.
The purpose is to find compounds that are state dependent modifiers of neuronal sodium channels. Preferably, the compounds have a low affinity for the rested/closed state of the channel, but a high affinity for the inactivated state. The following voltage protocol is used to measure a compounds affinity for the inactivated state. Oocytes are held at a holding potential of −120 mV. At this membrane voltage, nearly all of the channels are in the closed state. Then a 4 second depolarization is made to the voltage where the maximum current is elicited. At the end of this depolarization, nearly all the channels are in the inactivated state. A 10 ms hyperpolarizing step is then made in order to remove some channels from the inactivated state. A final depolarizing test pulse is used to assay the sodium current after this prolonged depolarization (see analysis below). Sodium currents are measured at this test pulse before and after the application of the tested compound. Data is acquired using PCLAMP 8.0 software and analyzed with […] software (Axon instruments). […]
In general terms: Two-electrode voltage clamp is typically applied to oocytes expressing channels or transporters.

The mark [1] stands for this setting: apparent inhibition constant from single point inhibition data, rat brain type IIa/beta 1 Na+ channels in Xenopus oocytes, inactivated state, read-out: Ki (oocyte).

Like-named read-outs stand apart in the source and are kept apart here.

Chain of rBIIa/beta 1 sodium channels expressed in Xenopus oocytes (P04775 whole entry): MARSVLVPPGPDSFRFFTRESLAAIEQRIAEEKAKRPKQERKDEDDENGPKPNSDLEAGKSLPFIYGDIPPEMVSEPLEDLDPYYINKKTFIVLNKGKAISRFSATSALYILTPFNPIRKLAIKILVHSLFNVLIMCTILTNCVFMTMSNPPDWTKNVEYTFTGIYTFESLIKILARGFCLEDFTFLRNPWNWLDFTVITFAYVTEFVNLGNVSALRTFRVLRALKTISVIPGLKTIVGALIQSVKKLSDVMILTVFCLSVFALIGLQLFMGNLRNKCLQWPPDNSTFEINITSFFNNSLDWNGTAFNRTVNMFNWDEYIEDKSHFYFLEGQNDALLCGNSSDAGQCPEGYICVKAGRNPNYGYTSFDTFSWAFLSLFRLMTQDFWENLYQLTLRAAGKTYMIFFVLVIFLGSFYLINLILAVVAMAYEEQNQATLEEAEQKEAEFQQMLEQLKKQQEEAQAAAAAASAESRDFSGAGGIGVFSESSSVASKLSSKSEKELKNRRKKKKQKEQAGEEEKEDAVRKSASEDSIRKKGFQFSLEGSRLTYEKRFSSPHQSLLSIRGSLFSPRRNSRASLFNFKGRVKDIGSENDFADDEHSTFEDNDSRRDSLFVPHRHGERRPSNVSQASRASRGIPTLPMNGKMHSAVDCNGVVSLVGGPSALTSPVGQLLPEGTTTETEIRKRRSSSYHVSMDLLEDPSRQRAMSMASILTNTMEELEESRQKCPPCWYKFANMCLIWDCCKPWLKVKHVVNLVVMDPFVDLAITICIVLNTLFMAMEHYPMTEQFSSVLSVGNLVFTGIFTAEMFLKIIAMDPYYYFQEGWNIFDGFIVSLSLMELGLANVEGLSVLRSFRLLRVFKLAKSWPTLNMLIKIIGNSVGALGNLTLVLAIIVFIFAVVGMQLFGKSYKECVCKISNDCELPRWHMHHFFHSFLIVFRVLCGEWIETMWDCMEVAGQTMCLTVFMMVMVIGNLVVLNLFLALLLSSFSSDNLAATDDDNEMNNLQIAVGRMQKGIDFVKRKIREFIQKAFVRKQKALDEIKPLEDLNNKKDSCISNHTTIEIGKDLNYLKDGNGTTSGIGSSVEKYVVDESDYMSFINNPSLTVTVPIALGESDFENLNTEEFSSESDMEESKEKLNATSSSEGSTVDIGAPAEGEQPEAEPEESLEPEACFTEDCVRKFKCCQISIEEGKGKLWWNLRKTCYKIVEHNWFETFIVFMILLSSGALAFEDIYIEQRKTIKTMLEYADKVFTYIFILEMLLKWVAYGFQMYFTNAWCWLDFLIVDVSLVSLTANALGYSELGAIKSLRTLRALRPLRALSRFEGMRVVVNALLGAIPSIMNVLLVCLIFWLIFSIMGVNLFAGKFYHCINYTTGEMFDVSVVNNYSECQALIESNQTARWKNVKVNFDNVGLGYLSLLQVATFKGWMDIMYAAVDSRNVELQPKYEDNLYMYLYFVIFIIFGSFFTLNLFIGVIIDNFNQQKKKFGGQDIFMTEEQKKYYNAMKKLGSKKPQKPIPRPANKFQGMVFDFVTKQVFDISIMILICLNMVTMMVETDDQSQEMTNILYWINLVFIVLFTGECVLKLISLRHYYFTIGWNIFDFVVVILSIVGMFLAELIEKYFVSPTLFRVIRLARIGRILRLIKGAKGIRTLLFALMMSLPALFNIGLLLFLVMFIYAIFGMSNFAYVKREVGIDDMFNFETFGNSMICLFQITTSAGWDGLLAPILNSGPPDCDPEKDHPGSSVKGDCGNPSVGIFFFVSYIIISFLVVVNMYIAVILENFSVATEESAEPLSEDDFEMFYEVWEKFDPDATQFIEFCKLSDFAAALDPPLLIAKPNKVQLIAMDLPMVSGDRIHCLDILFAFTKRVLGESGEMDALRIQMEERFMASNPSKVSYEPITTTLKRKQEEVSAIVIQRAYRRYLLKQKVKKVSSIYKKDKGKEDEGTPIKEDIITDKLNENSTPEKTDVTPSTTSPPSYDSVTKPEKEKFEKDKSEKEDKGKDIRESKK
Chain of rBIIa/beta 1 sodium channels expressed in Xenopus oocytes (Q00954 19-218 partner): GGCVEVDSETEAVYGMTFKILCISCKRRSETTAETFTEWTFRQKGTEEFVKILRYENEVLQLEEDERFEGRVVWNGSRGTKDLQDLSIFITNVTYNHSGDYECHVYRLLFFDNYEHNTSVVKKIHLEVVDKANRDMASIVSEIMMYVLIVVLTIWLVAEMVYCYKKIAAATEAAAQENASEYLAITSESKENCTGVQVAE

Regarding `O=C1CSC(c2cccc(Oc3cccc(C(F)(F)F)c3)c2)N1CCNCc1ccccc1` (centres unmarked), under setting [1], the Ki came out at 50 nM.

Turning to `O=C1CSC(c2cccc(Oc3ccccc3)c2)N1CCN1CCCCC1` (centres unmarked), the Ki under setting [1] is 430 nM.

For `O=C1CSC(c2cccc(Oc3cccc(C(F)(F)F)c3)c2)N1Cc1ccccn1` (centres unmarked), under setting [1], the Ki was 3400 nM.

Take `CN(C)CCCN1C(=O)CSC1c1cccc(Oc2cccc(C(F)(F)F)c2)c1` (centres unmarked): the Ki under setting [1] turned out to be 2750 nM.

With `CCn1c2ccccc2c2cc(C3SCC(=O)N3CCN3CCCC3)ccc21` (centres unmarked), the Ki under setting [1] amounted to 7400 nM.

With `O=C1CSC(c2cccc(Oc3ccc(Cl)cc3)c2)N1CCN1CCCCC1` (centres unmarked), the Ki under setting [1] was 390 nM.

In the case of `CN(C)CCN1C(=O)CSC1C=C(c1ccccc1)c1ccccc1` (centres unmarked), the Ki under setting [1] is 2600 nM.

As to `O=C1CSC(C#Cc2ccccc2)N1CCN1CCCCC1` (centres unmarked), the Ki under setting [1] worked out at 5350 nM.

In the case of `COc1ccc(Oc2cccc(C3SCC(=O)N3CCN3CCCCC3)c2)cc1` (centres unmarked), the Ki under setting [1] amounted to 800 nM.

For `CC1CCCCN1CCCN1C(=O)CSC1c1cccc(Oc2cccc(C(F)(F)F)c2)c1` (centres unmarked), the Ki under setting [1] was determined as 1320 nM.

Regarding `CN(C)CCCN1C(=O)CSC1c1cccc(Oc2cc(Cl)cc(Cl)c2)c1` (centres unmarked), the Ki under setting [1] was determined as 1880 nM.

On to `O=C1CSC(C=Cc2ccccc2)N1CCN1CCCCC1` (centres unmarked), for which the Ki was determined as 8790 nM.

For the compound `O=C1CSC(C=C(c2ccccc2)c2ccccc2)N1CCN1CCCCC1` (centres unmarked), under setting [1], the Ki was 290 nM.

As for `O=C1CSC(c2cccc(Oc3cccc(C(F)(F)F)c3)c2)N1CCN1CCCC1` (centres unmarked), under setting [1], the Ki was 420 nM.

Regarding `O=C1CSC(C=C(c2ccccc2)c2ccccc2)N1CCN1CCCC1` (centres unmarked), under setting [1], the Ki came to 3480 nM.

Take `CN(C)CCN1C(=O)CSC1c1cccc(Oc2ccc(C(C)(C)C)cc2)c1` (centres unmarked): under setting [1], the Ki was found to be 840 nM.

As for `O=C1CSC(c2cccc(Oc3ccc(Cl)c(Cl)c3)c2)N1CCN1CCCC1` (centres unmarked), the Ki under setting [1] is 720 nM.

On to `CC1CCCCN1CCCN1C(=O)CSC1c1cccc(Oc2ccc(Cl)c(Cl)c2)c1` (centres unmarked), for which the Ki under setting [1] came to 880 nM.

Take `O=C1CSC(c2cccc3ccccc23)N1CCN1CCCCC1` (centres unmarked): the Ki under setting [1] amounted to 2830 nM.

As for `O=C1CSC(c2cccc(Oc3ccccc3)c2)N1C1CCN(Cc2ccccc2)CC1` (centres unmarked), the Ki under setting [1] is 250 nM.

Consider `CN(C)CC(C)(C)CN1C(=O)CSC1c1cccc(Oc2ccc(Cl)c(Cl)c2)c1` (centres unmarked), for which, under setting [1], the Ki amounted to 390 nM.

On to `O=C1CSC(c2cccc(OCc3ccccc3)c2)N1CCN1CCCCC1` (centres unmarked), for which the Ki under setting [1] is 390 nM.

As for `O=C1CSC(c2cccc(Oc3ccc(Cl)c(Cl)c3)c2)N1CCN1CCCCC1` (centres unmarked), the Ki under setting [1] is 180 nM.

In the case of `O=C1CSC(c2cccc(OCc3ccccc3)c2)N1CCN1CCCC1` (centres unmarked), the Ki under setting [1] was determined as 3430 nM.

Turning to `CN(C)CC(C)(C)CN1C(=O)CSC1c1cccc(Oc2cccc(C(F)(F)F)c2)c1` (centres unmarked), the Ki under setting [1] was 230 nM.

In the case of `CC(C)(C)c1ccc(Oc2cccc(C3SCC(=O)N3CCN3CCCCC3)c2)cc1` (centres unmarked), the Ki under setting [1] was determined as 180 nM.

For `O=C1CSC(c2ccc(Oc3ccc(F)cc3)cc2)N1CCN1CCCCC1` (centres unmarked), under setting [1], the Ki amounted to 500 nM.

Turning to `O=C1CSC(c2cccc(Oc3cccc(C(F)(F)F)c3)c2)N1CCCn1ccnc1` (centres unmarked), under setting [1], the Ki came out at 1150 nM.

For `CN(C)CCN1C(=O)CSC1c1cccc(Oc2cc(Cl)cc(Cl)c2)c1` (centres unmarked), the Ki under setting [1] turned out to be 840 nM.

For `O=C1CSC(c2ccc(Oc3ccc(F)cc3)cc2)N1C1CCN(Cc2ccccc2)CC1` (centres unmarked), the Ki under setting [1] came out at 280 nM.

Regarding `CC1SCC(=O)N1CCN1CCCCC1` (centres unmarked), the Ki under setting [1] is 70700 nM.

Consider `CC(C)N(CCN1C(=O)CSC1c1cccc(Oc2cccc(C(F)(F)F)c2)c1)C(C)C` (centres unmarked), for which the Ki under setting [1] is 30 nM.

`O=C1CSC(c2cccc(Oc3ccc(Cl)c(Cl)c3)c2)N1CCN1CCOCC1` (centres unmarked): the Ki under setting [1] is 810 nM.

In the case of `O=C1CSC(c2ccc(-c3ccc(Cl)cc3)o2)N1CCN1CCCCC1` (centres unmarked), under setting [1], the Ki is 600 nM.

On to `O=C1CSC(c2cccc(OCc3ccccc3)c2)N1CCCn1ccnc1` (centres unmarked), for which the Ki under setting [1] turned out to be 6550 nM.

For the origin of these results see patent US7169782B2, “Aryl substituted thiazolidinones and the use thereof” (Euro-Celtique S.A., priority 2001, dated 2007).
